Consider 35 compounds from a polymer gas permeability compilation.

In turn, `*c1c(C)cc2c(c1C)C1c3ccccc3C2c2cc(C)c(N3C(=O)c4ccc(C(c5ccc6c(c5)C(=O)N(*)C6=O)(C(F)(F)F)C(F)(F)F)cc4C3=O)c(C)c21` (repeat unit) came in with a CH4 permeability of 121 Barrer, a CO2 permeability of 1730 Barrer, an H2 permeability of 1400 Barrer and an N2 permeability of 113 Barrer. The O2 permeability turned out to be 374 Barrer.
As for `*Oc1ccc(S(=O)(=O)c2ccc(Oc3c(C)cc(-c4cc(C)c(*)c(C)c4)cc3C)cc2)cc1` (repeat unit), the CH4 permeability came to 1.27 Barrer, the CO2 permeability came to 31.8 Barrer, the N2 permeability was determined as 1.21 Barrer and the O2 permeability worked out at 5.8 Barrer.
Turning to `*Oc1ccc(C2(c3ccc(OC(=O)c4cccc(C(*)=O)c4)cc3)OC(=O)c3ccccc32)cc1` (repeat unit), the CH4 permeability came out at 0.251 Barrer, the CO2 permeability turned out to be 7.87 Barrer, the H2 permeability came out at 17.2 Barrer and the N2 permeability came out at 0.303 Barrer. The compound further had an O2 permeability of 1.78 Barrer.
In turn, `*CC(*)C` (repeat unit) came in with a CO2 permeability of 9.2 Barrer, an N2 permeability of 0.5 Barrer and an O2 permeability of 1.41 Barrer.
In turn, `*c1ccc(Sc2ccc(N3C(=O)c4ccc(C(c5ccc6c(c5)C(=O)N(*)C6=O)(C(F)(F)F)C(F)(F)F)cc4C3=O)cc2)cc1` (repeat unit) showed a CH4 permeability of 0.66 Barrer, a CO2 permeability of 23.1 Barrer, an N2 permeability of 0.87 Barrer and an O2 permeability of 4.66 Barrer.
`*c1ccc2c3c(ccc2c1)OC1CC3c2c(ccc3cc(N4C(=O)c5ccc(C(c6ccc7c(c6)C(=O)N(*)C7=O)(C(F)(F)F)C(F)(F)F)cc5C4=O)ccc23)O1` (repeat unit) registered a CH4 permeability of 0.6 Barrer, a CO2 permeability of 26.3 Barrer, an H2 permeability of 60.2 Barrer and an N2 permeability of 1.1 Barrer. The O2 permeability turned out to be 5.85 Barrer.
`*CC(*)c1ccc(Cl)cc1` (repeat unit): the CH4 permeability is 0.26 Barrer, the CO2 permeability amounted to 4.3 Barrer, the N2 permeability came out at 0.23 Barrer and the O2 permeability was found to be 1.2 Barrer.
In turn, `*Oc1ccc(S(=O)(=O)c2ccc(Oc3ccc(C(C)(C)c4cccc(*)c4)cc3)cc2)cc1` (repeat unit) yielded a CH4 permeability of 0.0432 Barrer, a CO2 permeability of 1.5 Barrer, an N2 permeability of 0.0661 Barrer and an O2 permeability of 0.39 Barrer.
In turn, `*c1ccc(Cc2ccc(N3C(=O)c4ccc(C(c5ccc6c(c5)C(=O)N(*)C6=O)(C(F)(F)F)C(F)(F)F)cc4C3=O)c(O)c2)cc1O` (repeat unit) came in with a CH4 permeability of 0.0562 Barrer, a CO2 permeability of 4.85 Barrer, an N2 permeability of 0.168 Barrer and an O2 permeability of 1.22 Barrer.
As to `*Nc1ccc(C(=O)c2ccc(NC(=O)c3cc(C(*)=O)cc(C(C)(C)C)c3)cc2)cc1` (repeat unit), the CO2 permeability was 4.96 Barrer, the N2 permeability is 0.23 Barrer and the O2 permeability was determined as 1.16 Barrer.
`*C(=C(*)c1ccc2c(c1)C(C)(C)c1cc([Si](C)(C)C)ccc1-2)c1ccccc1` (repeat unit) gave a CH4 permeability of 10000 Barrer, a CO2 permeability of 18000 Barrer, an H2 permeability of 8500 Barrer and an N2 permeability of 3400 Barrer. This compound also came in with an O2 permeability of 5400 Barrer.
`*O[Si](*)(C)CCCCCC` (repeat unit) returned an N2 permeability of 103 Barrer and an O2 permeability of 236 Barrer.
In turn, `*c1ccc(-c2ccc(-c3ccc(C(*)(c4ccccc4)C(F)(F)F)cc3)cc2)cc1` (repeat unit) returned a CH4 permeability of 13 Barrer, a CO2 permeability of 220 Barrer, an H2 permeability of 126 Barrer and an N2 permeability of 9 Barrer. The compound further showed an O2 permeability of 32 Barrer.
On to `*C(=O)c1ccc(C2(c3ccc(C(=O)c4ccc(Oc5ccc(C(=O)c6ccc(C(=O)c7ccc(Oc8ccc(*)cc8)cc7)cc6)cc5)cc4)cc3)OC(=O)c3ccccc32)cc1` (repeat unit), for which the CH4 permeability stood at 0.069 Barrer, the CO2 permeability was determined as 2.14 Barrer, the H2 permeability stood at 7.5 Barrer and the N2 permeability was 0.0729 Barrer. This compound registered an O2 permeability of 0.51 Barrer.
The corresponding values for `*Oc1c(C)cc(C(C)(C)c2cc(C)c(OC(*)=O)c(C)c2)cc1C` (repeat unit) are 0.89 Barrer, 18.6 Barrer, 32 Barrer, 1.1 Barrer and 5.6 Barrer.
As to `*c1c(C)cc(C)c(N2C(=O)c3ccc(-c4ccc5c(c4)C(=O)N(*)C5=O)cc3C2=O)c1C` (repeat unit), the CH4 permeability was determined as 8 Barrer, the CO2 permeability turned out to be 182 Barrer, the H2 permeability was 210 Barrer and the N2 permeability stood at 7.5 Barrer. The O2 permeability came to 32 Barrer.
The corresponding values for `*Oc1ccc(Oc2cccc(*)c2C#N)c(-c2cccc(C(F)(F)F)c2)c1` (repeat unit) are 0.09 Barrer, 3.7 Barrer, 9.3 Barrer, 0.15 Barrer and 0.87 Barrer.
Consider `*OC(=O)c1ccc(C(=O)Oc2ccc(C3(c4ccc(O*)cc4)OC(=O)c4ccccc43)cc2)cc1` (repeat unit), for which the CH4 permeability was found to be 0.47 Barrer, the CO2 permeability worked out at 11.7 Barrer, the N2 permeability turned out to be 0.41 Barrer and the O2 permeability worked out at 2.15 Barrer.
`*Oc1ccc(S(=O)(=O)c2ccc(-c3ccc(S(=O)(=O)c4ccc(Oc5ccc(C(C)(C)c6ccc(*)cc6)cc5)cc4)cc3)cc2)cc1` (repeat unit) yielded a CH4 permeability of 0.5 Barrer, a CO2 permeability of 10.8 Barrer, an H2 permeability of 20.1 Barrer and an N2 permeability of 0.469 Barrer. Moreover, the O2 permeability came to 2.39 Barrer.
`*O[Si](*)(C)CCCCCCCC` (repeat unit) yielded a CH4 permeability of 313 Barrer, a CO2 permeability of 932 Barrer, an N2 permeability of 88.3 Barrer and an O2 permeability of 196 Barrer.
In the case of `*OC(=O)Oc1c(C)cc(C(C)(C)c2cc(C)c(*)c(C)c2)cc1C` (repeat unit), the CH4 permeability was determined as 0.955 Barrer, the CO2 permeability was 19.6 Barrer, the N2 permeability came out at 1.07 Barrer and the O2 permeability is 5.54 Barrer.
Turning to `*O[Si](*)(C)C` (repeat unit), the CH4 permeability was 1350 Barrer, the CO2 permeability is 4180 Barrer, the H2 permeability is 890 Barrer and the N2 permeability amounted to 351 Barrer. The O2 permeability worked out at 800 Barrer.
In turn, `*Oc1ccc(C(c2ccc(OC(=O)c3ccc(C(*)=O)cc3)cc2)(C(F)(F)F)C(F)(F)F)cc1` (repeat unit) registered a CH4 permeability of 2.74 Barrer, a CO2 permeability of 47.1 Barrer, an N2 permeability of 2.95 Barrer and an O2 permeability of 11.8 Barrer.
On to `*C(=O)c1ccc(C(c2ccc3c(c2)C(=O)n2c-3nc3cc4nc(*)n(*)c4cc32)(C(F)(F)F)C(F)(F)F)cc1*` (repeat unit), for which the CH4 permeability stood at 0.911 Barrer, the CO2 permeability came out at 54 Barrer, the N2 permeability turned out to be 2.58 Barrer and the O2 permeability was 15.2 Barrer.
The compound `*OC1OC(OC(C)=O)C(*)C(O)C1OC(C)=O` (repeat unit) registered a CH4 permeability of 0.15 Barrer, a CO2 permeability of 3.5 Barrer, an H2 permeability of 12 Barrer and an N2 permeability of 0.14 Barrer. Also, the O2 permeability came out at 0.735 Barrer.
In turn, `*c1ccc2c(c1)C1(CC2(C)C)CC(C)(C)c2ccc(N3C(=O)c4cc5c(cc4C3=O)C3(CC(C)(C)c4cc6c(cc43)C(=O)N(*)C6=O)CC5(C)C)cc21` (repeat unit) returned a CH4 permeability of 129 Barrer, a CO2 permeability of 1520 Barrer, an H2 permeability of 624 Barrer and an N2 permeability of 65 Barrer. Besides, the O2 permeability is 208 Barrer.
With `*CCC(F)(F)C(*)(F)F` (repeat unit), the CO2 permeability is 1.98 Barrer, the N2 permeability is 0.182 Barrer and the O2 permeability was determined as 0.532 Barrer.
`*c1c(C)cc(C)c(N2C(=O)c3ccc(C(c4ccc5c(c4)C(=O)N(*)C5=O)(C(F)(F)F)C(F)(F)F)cc3C2=O)c1C` (repeat unit) yielded a CH4 permeability of 20.4 Barrer, a CO2 permeability of 422 Barrer, an H2 permeability of 435 Barrer and an N2 permeability of 24.3 Barrer. The compound further returned an O2 permeability of 87.7 Barrer.
On to `*c1ccc(Oc2ccc(S(=O)(=O)c3ccc(Oc4ccc(N5C(=O)c6ccc(-c7ccc8c(c7)C(=O)N(*)C8=O)cc6C5=O)cc4)cc3)cc2)cc1` (repeat unit), for which the CH4 permeability turned out to be 0.0397 Barrer, the CO2 permeability was 1.85 Barrer, the N2 permeability stood at 0.0544 Barrer and the O2 permeability turned out to be 0.368 Barrer.
As for `*CC(*)C(=O)OC` (repeat unit), the CH4 permeability was 0.262 Barrer, the CO2 permeability is 8.19 Barrer, the H2 permeability was found to be 10.6 Barrer and the N2 permeability was 0.213 Barrer. This compound displayed an O2 permeability of 1.06 Barrer.
Compound `*c1ccc(-c2ccc(N3C(=O)c4ccc([Si](C)(C)c5ccc6c(c5)C(=O)N(*)C6=O)cc4C3=O)cc2)cc1` (repeat unit) showed an H2 permeability of 8.38 Barrer, an N2 permeability of 0.109 Barrer and an O2 permeability of 0.677 Barrer.
`*CC(C#N)(C#N)CC(*)OC(C)=O` (repeat unit) yielded an N2 permeability of 0.0138 Barrer and an O2 permeability of 0.16 Barrer.
Compound `*Nc1cccc(NC(=O)c2ccc(C(c3ccc(C(*)=O)cc3)(C(F)(F)F)C(F)(F)F)cc2)c1` (repeat unit) registered a CH4 permeability of 0.24 Barrer, a CO2 permeability of 8.4 Barrer, an H2 permeability of 23 Barrer and an N2 permeability of 0.4 Barrer. Besides, the O2 permeability is 2.2 Barrer.
With `*c1ccc(Cc2ccc(N3C(=O)c4ccc(-c5ccc6c(c5)C(=O)N(*)C6=O)cc4C3=O)cc2Cl)c(Cl)c1` (repeat unit), the CH4 permeability is 0.0055 Barrer, the CO2 permeability came out at 0.335 Barrer, the N2 permeability was determined as 0.0107 Barrer and the O2 permeability amounted to 0.0957 Barrer.
For `*O[Si](C)(C)c1ccc([Si](*)(C)C)cc1` (repeat unit), the CH4 permeability came out at 12 Barrer, the CO2 permeability is 65 Barrer and the O2 permeability is 11 Barrer.
